Experimental data from article PMC2683593 (The Journal of neuroscience : the official journal of the …, 2009).
Where “and” joins values, the source holds several entries; their conditions need not be identical. Identical values can stand only once. Entries after “also recorded” stand apart in the source; their conditions may differ. Like-named read-outs stand apart in the source and are kept apart here.

How the values were obtained:
Type in all cases: cell-based, Swiss-Webster mice
cerebrocortical neurons [1] = tested on: cerebrocortical neurons
cerebrocortical neurons [2] = tested on: cerebrocortical neurons; remark: listed apart in the source
cerebrocortical neurons [3] = experiment: Viable neuron count by fluorescein diacetate staining; conditions: read-out: EC50 for decreasing the live neuron count, DIV-9, 95% CI 38.4–176 μM
cerebrocortical neurons [4] = experiment: Intracellular Ca2+ monitoring
cerebrocortical neurons [5] = experiment: Intracellular sodium concentration
cerebrocortical neurons [6] = experiment: Membrane potential assay
NMDA receptors = experiment: Single-channel cell-attached patch recording of NMDA receptor currents
Src kinase = tested on: Src kinase
[7] = 15 min preincubation with 10 μM PP2 or PP3, after PbTx-2
[8] = 15 min preincubation with 10 μM PP2 or PP3, before PbTx-2

NC1=N[C@H](O)[C@H]2[C@H]3O[C@]4(O)O[C@@H]([C@@H](O)[C@@]2(N1)[C@@H]4O)[C@]3(O)CO [TTX, tetrodotoxin]
effect on PbTx-2 enhanced neurite outgrowth (cerebrocortical neurons [1]): completely blocked
total neurite length, inhibitor alone (cerebrocortical neurons [1]): 185 ± 13.2 μm
total neurite length, inhibitor plus 30 nM PbTx-2 (cerebrocortical neurons [1]): 190.2 ± 10.7 μm

C[C@]12N[C@H](Cc3ccccc31)c1ccccc12 [MK-801]
effect on PbTx-2 enhanced neurite outgrowth (cerebrocortical neurons [1]): abrogated
total neurite length, inhibitor plus 30 nM PbTx-2 (cerebrocortical neurons [1]): 83.1± 5.26 μm

CN[C@H](CC(=O)O)C(=O)O [NMDA]
sensitivity to NMDA-induced LDH efflux (cerebrocortical neurons [2]; 2, 4 and 6 DIV cultures, after 2 h exposure or at 24 h post-exposure): little sensitivity
maximal LDH efflux (cerebrocortical neurons [2]; DIV-9 cultures, 24 h after initiation of 2 h NMDA exposure): 247 ± 10.5 % of control
EC50 (cerebrocortical neurons [2]; read-out: EC50 for LDH efflux, DIV-9 neurons, 95% CI 27.9–101 μM): 53.1 µM
EC50 (cerebrocortical neurons [3]): 82.2 µM
effect of NMDA alone on [Ca2+]i (cerebrocortical neurons [4]; 3 μM NMDA, DIV-2 neurons): did not affect [Ca^2+]i
EC50 (cerebrocortical neurons [4]; read-out: EC50 for NMDA-induced Ca2+ influx, DIV-4 neurons, absence of PbTx-2): 19.2 µM
EC50 (cerebrocortical neurons [4]; read-out: EC50 for NMDA-induced Ca2+ influx, DIV-9 neurons, absence of PbTx-2): 11.1 µM

O=C(O)c1ccc2c3c1cccc3c(=O)n1c3ccccc3nc21 [STO-609, 1,8-naphthoylene benzimidazole-3-carboxylic acid]
effect on PbTx-2 enhanced neurite outgrowth (cerebrocortical neurons [1]): completely blocked

C=C(C=O)C[C@@H]1C[C@H](O)[C@]2(C)O[C@@H]3C[C@@H]4O[C@@H]5C[C@]6(C)O[C@]7(C)CC[C@@H]8O[C@@H]9C[C@]%10(C)O[C@@H]%11C(C)=CC(=O)O[C@H]%11C[C@H]%10O[C@H]9C[C@@H](C)[C@H]8O[C@H]7C[C@H]6O[C@H]5C/C=C\[C@H]4O[C@H]3C[C@H]2O1 [PbTx-2, Brevetoxin-2]
Ca2+ influx pathway stimulated (cerebrocortical neurons [4]): primarily through NMDA receptors; also recorded: through both L-type calcium channels and NMDA receptors
effect of PbTx-2 alone on [Ca2+]i (cerebrocortical neurons [4]): did not alter [Ca^2+]i
effect of PbTx-2 alone on fluo-3 fluorescence (cerebrocortical neurons [4]): did not increase fluo-3 fluorescence
effect on NMDA-induced Ca2+ influx (cerebrocortical neurons [4]): robust potentiation
EC50 (cerebrocortical neurons [4]; read-out: EC50 for PbTx-2-stimulated increase in [Ca2+]i): 0.244 µM
[Na+]i increment over basal (cerebrocortical neurons [5]): 8.8 ± 1.8 mM
concentration-response profile of [Na+]i (cerebrocortical neurons [5]): hormetic profile
maximum [Na+]i (cerebrocortical neurons [5]): 16.9 ± 1.5 mM
maximum elevation of [Na+]i (concentration-response) (cerebrocortical neurons [5]): 36.6 ± 0.9 mM
EC50 (cerebrocortical neurons [5]; read-out: EC50 for PbTx-2-induced elevation of [Na+]i): 0.0433 µM
membrane potential after PbTx-2 (cerebrocortical neurons [6]): 29.3 ± 0.02 mV
membrane potential change (depolarization) (cerebrocortical neurons [6]): 0.2 ± 0.02 mV
EC50 (cerebrocortical neurons [6]; read-out: EC50 for increment in FMP blue fluorescence (membrane potential)): 0.0967 µM
amplitude of single channel currents (NMDA receptors): 6.8 ± 0.4 pA
effect on membrane potential from single channel NMDA receptor currents (NMDA receptors): did not affect
open probability (Po) of NMDA receptors (NMDA receptors): 0.031 ± 0.008
open time histogram, first time constant (area) (NMDA receptors): 1.6 (65%)
open time histogram, second time constant (area) (NMDA receptors): 4.1 (35%)
shut time histogram, first time constant (area) (NMDA receptors): 0.63 (45%)
shut time histogram, fourth time constant (area) (NMDA receptors): 1361 (11%)
shut time histogram, second time constant (area) (NMDA receptors): 10.0 (16%)
shut time histogram, third time constant (area) (NMDA receptors): 180 (28%)
total neurite length (cerebrocortical neurons [1]): 265.8 ± 20.86 μm and 166.5 ± 17.9 μm
phosphorylation of tyrosine 416 of Src (Src kinase): significant increase

Nc1ncnc2c1cnn2-c1ccccc1 [PP3, 4-Amino-7-phenylpyrazol [3,4-d] pyrimidine]
mean open time, inhibitor plus PbTx-2 (NMDA receptors; [7]): 3.87 ± 0.15 ms
open probability (Po), inhibitor plus PbTx-2 (NMDA receptors; [7]): 0.013 ± 0.003
mean open time, inhibitor alone (control) (NMDA receptors; [8]): 1.39 ± 0.09 ms
open probability (Po), inhibitor alone (control) (NMDA receptors; [8]): 0.0032 ± 0.0005
